This experiment addresses T1, mGluR2 receptor (metabotropic glutamate receptor 2) (Homo sapiens, UniProt Q14416).
T1 construct: expressed in transfected cells
Put plainly: mGluR2 potentiator screen (FLIPR, EC10-EC20 glutamate challenge).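 Also: HEK cells stably expressing human mGluR2 with GL15 G protein, Fluo-4 calcium fluorescence read on FLIPR, compounds added before an EC10-EC20 glutamate challenge to detect potentiation.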 The experiment is classed as cell-based. The note with it: geometric mean; read-out: mGluR 2 EC50 (geometric mean).
T1 sequence (Q14416 19-872, species assumed): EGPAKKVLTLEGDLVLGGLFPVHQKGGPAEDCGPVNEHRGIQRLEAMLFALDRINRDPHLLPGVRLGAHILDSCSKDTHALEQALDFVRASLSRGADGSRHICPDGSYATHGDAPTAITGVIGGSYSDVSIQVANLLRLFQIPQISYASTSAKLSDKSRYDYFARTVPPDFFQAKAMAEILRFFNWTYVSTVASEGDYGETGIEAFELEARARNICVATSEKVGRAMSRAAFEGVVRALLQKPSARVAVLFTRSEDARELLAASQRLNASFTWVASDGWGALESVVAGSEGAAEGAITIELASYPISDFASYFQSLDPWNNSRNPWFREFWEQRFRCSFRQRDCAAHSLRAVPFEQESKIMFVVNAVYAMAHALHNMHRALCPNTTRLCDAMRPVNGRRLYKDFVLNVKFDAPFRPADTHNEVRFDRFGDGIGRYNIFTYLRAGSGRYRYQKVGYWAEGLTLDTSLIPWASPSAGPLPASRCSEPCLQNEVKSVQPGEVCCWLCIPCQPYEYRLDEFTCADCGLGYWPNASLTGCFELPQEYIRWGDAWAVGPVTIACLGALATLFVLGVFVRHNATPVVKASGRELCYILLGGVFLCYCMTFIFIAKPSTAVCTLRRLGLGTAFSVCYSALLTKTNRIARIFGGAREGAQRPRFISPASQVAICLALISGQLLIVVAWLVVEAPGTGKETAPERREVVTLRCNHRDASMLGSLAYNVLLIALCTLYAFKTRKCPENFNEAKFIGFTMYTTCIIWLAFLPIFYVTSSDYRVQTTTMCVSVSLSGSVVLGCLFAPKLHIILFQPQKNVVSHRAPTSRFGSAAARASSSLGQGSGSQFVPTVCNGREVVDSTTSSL
As to `CCCN1CCN(Cc2ccc(OC(C)C3CCCCC3)cc2)C(=O)C1` (stereo not drawn) [Example 215], the concentration for a half-maximal effect (EC50) worked out at 435 nM.
Under `CC(C)Oc1ccc(-c2ccc(CN3C[C@@H](C)OC3=O)cn2)c(Cl)c1` [Example 278] stands 164 nM; under `O=C1OCCCN1Cc1ccc(OCc2ccccc2)cc1` [Example 31], 1250 nM.
`C[C@@H]1CN(Cc2ccc(-c3cccc(F)c3F)cc2)C(=O)O1` [Example 244]: the EC50 was 97.2 nM.
For the molecule `C[C@H](Oc1ccc(CN2C[C@H](C)OC2=O)cc1)c1ccccc1` [Example 70], the half-maximal effective concentration (EC50) is 209 nM.
Under `CC1CN(Cc2ccc(OC3Cc4ccccc4C3)cc2)C(=O)O1` (stereo not drawn) [Example 126] stands 83.1 nM; under `CCOC(=O)c1cccc(-c2ccc(CN3C[C@@H](C)OC3=O)cc2)c1` [Example 169], 49 nM.
The figure for `CC1CN(Cc2ccc(O[C@@H](C)c3ccccc3)cc2)C(=O)O1` (stereo partly drawn) [Example 144] is 84.8 nM; for `Cc1ccc(C)n1-c1ccc(CN2C[C@@H](C)OC2=O)cc1` [Example 178, (5R)-3-[4-(2,5-dimethyl-1H-pyrrol-1-yl)benzyl]-5-methyl-1,3-oxazolidin-2-one] it is 523 nM.
Turning to `Cc1ccc(Cl)cc1-c1ccc(CN2C[C@@H](C)OC2=O)cn1` [Example 259], the concentration for a half-maximal effect (EC50) is 1460 nM.
With `Cc1cc(CN2C[C@@H](C)OC2=O)ccc1OCC1CCCCC1` [Example 254, (5R)-3-[4-(Cyclohexylmethoxy)-3-methylbenzyl]-5-methyl-1,3-oxazolidin-2-one], the EC50 is 71.2 nM.
Under `C[C@@H]1CN(Cc2ccc(-c3ccc(OC(F)(F)F)cc3)nc2)C(=O)O1` [Example 255, (5R)-5-methyl-3-({6-[4-(trifluoromethoxy)phenyl]pyridin-3-yl}methyl)-1,3-oxazolidin-2-one] stands 463 nM.
Under `CCC(CC)Oc1ccc(CN2CC(C)OC2=O)cc1` (stereo not drawn) [Example 136] stands 774 nM; under `CC(Oc1ccc(CN2CC(C)(C)COC2=O)cc1)c1ccccc1` (stereo not drawn) [Example 45], 213 nM; under `C[C@@H]1CN(Cc2ccc(NCC3CCCCC3)nc2)C(=O)O1` [Example 283, (5R)-3-({6-[(Cyclohexylmethyl)amino]pyridin-3-yl}methyl)-5-methyl-1,3-oxazolidin-2-one], 1290 nM.
The figure for `C[C@@H]1CN(Cc2ccc(-c3cccc(F)c3Cl)cc2F)C(=O)O1` [Example 251] is 55.9 nM; for `CC1CN(Cc2ccc(OC3CCc4ccccc43)cc2)C(=O)O1` (stereo not drawn) [Example 140] it is 85.8 nM.
Take `CC(Oc1ccc(CN2CCN(C(C)C)CC2=O)cc1)C1CCCCC1` (stereo not drawn) [Example 201]: the 50% effective concentration (EC50) came to 763 nM.
Under `CC(C)CN1CCN(Cc2ccc(OC(C)C3CCCCC3)cc2)C(=O)C1` (stereo not drawn) [Example 200] stands 191 nM; under `C[C@H]1CN(Cc2ccc(O[C@H](C)c3ccccc3)cc2)C(=O)O1` [Example 68], 299 nM.
Under `C[C@H]1[C@@H](c2ccccc2)OC(=O)N1Cc1ccc(OCc2ccccc2)cc1` [Example 29] stands 467 nM; under `C[C@@H]1CN(Cc2ccc(-c3ccc(C#N)cc3)cc2)C(=O)O1` [Example 191], 166 nM.
Under `CC(C)COc1ccc(CN2C(=O)O[C@H](c3ccccc3)[C@@H]2C)cc1` [Example 26] stands 542 nM; under `C[C@@H]1CN(Cc2ccc(-c3ccc(C(F)(F)F)cc3Cl)nc2)C(=O)O1` [Example 268], 102 nM; under `COc1ccc(F)cc1-c1ccc(CN2C[C@@H](C)OC2=O)cn1` [Example 267], 1160 nM.
Consider `O=C1OCCCN1Cc1ccc(OCC2CCC2)cc1` [Example 28], for which the concentration for a half-maximal effect (EC50) was 1240 nM.
With `C[C@@H]1CN(Cc2ccc(-c3ccc4c(c3)OCCO4)cc2)C(=O)O1` [Example 198], the EC50 stood at 42.2 nM.
Under `Cc1nc(-c2ccccc2)ncc1COc1ccc(CN2CC(C)OC2=O)cc1` (stereo not drawn) [Example 133] stands 120 nM.
The figure for `CC1CN(Cc2ccc(OCCC(C)(C)C)cc2)C(=O)O1` (stereo not drawn) [Example 96] is less than 14.9 nM; for `CN(C)CC1CN(Cc2ccc(-c3ccc(F)cc3F)cc2)C(=O)O1` (stereo not drawn) [Example 307, 3-[(2′,4′-difluorobiphenyl-4-yl)methyl]-5-[(dimethylamino)methyl]-1,3-oxazolidin-2-one] it is 1360 nM; for `C[C@@H]1CN(Cc2ccc(CN3CCc4cc(Cl)ccc43)cc2)C(=O)O1` [Example 300, (5R)-3-{4-[(5-Chloro-2,3-dihydro-1H-indol-1-yl)methyl]benzyl}-5-methyl-1,3-oxazolidin-2-one] it is 94.5 nM.
Under `C[C@@H]1CN(Cc2ccc(CCc3ccccc3)cc2)C(=O)O1` [Example 318, (5R)-5-methyl-3-[4-(2-phenylethyl)benzyl]-1,3-oxazolidin-2-one] stands 111 nM; under `C[C@H]1CN(Cc2ccc(-c3ccc(C(F)(F)F)cc3)cc2)C(=O)O1` [Example 63, (5S)-5-methyl-3-{[4′-(trifluoromethyl)biphenyl-4-yl]methyl}-1,3-oxazolidin-2-one], 141 nM.
Consider `COc1c(-c2ccc(F)cc2)ccc(CN2C[C@@H](C)OC2=O)c1F` [Example 253], for which the EC50 came to 135 nM.
Under `CCC(COc1ccc(CN2CC(C)OC2=O)cc1)(c1ccccc1)N(C)C` (stereo not drawn) [Example 141] stands 995 nM; under `CC(Oc1ccc(CN2CCN(C3CC[C@@H](C)C3)CC2=O)cc1)C1CCCCC1` (stereo partly drawn) [Example 224], 1100 nM.
`COc1ccc(Cl)cc1-c1ccc(CN2C[C@@H](C)OC2=O)cc1` [Example 196]: the EC50 turned out to be 48.9 nM.
In the case of `CC1CN(Cc2ccc(OCCC3CCCC3)cc2)C(=O)O1` (stereo not drawn) [Example 92], the concentration giving a half-maximal response (EC50) was found to be 10.8 nM.
With `C[C@@H]1CN(Cc2ccc(-c3ccc(C(F)(F)F)cc3Cl)cc2)C(=O)O1` [Example 272], the EC50 worked out at 20.1 nM.
As to `CC1CN(Cc2ccc(OCc3ccc(Cl)cc3)cc2)C(=O)O1` (stereo not drawn) [Example 89], the EC50 amounted to 69.2 nM.
Under `C[C@@H]1CN(Cc2ccc(OCCCc3ccccc3)cc2)C(=O)O1` [Example 204, (5R)-5-methyl-3-[4-(3-phenylpropoxy)benzyl]-1,3-oxazolidin-2-one] stands 24.8 nM.
The figure for `CC1CN(Cc2ccc(OCc3nc4ccccc4n3C(C)C)cc2)C(=O)O1` (stereo not drawn) [Example 97] is 823 nM; for `C[C@@H]1CN(Cc2ccc(-c3ccc(N(C)C)nc3)cc2)C(=O)O1` [Example 155] it is 489 nM; for `O=C1OC(c2ccccc2)CN1Cc1ccc(OCc2cccnc2)cc1` (stereo not drawn) [Example 13] it is 218 nM.
The figure for `COc1cc(F)ccc1COc1ccc(CN2CC(C)OC2=O)cc1` (stereo not drawn) [Example 147] is 118 nM; for `C[C@@H]1CN(Cc2ccc(-c3c(F)cccc3F)cc2)C(=O)O1` [Example 247] it is 211 nM; for `Cc1cc(CN2CC(c3cccnc3)OC2=O)ccc1OCC1CCCCC1` (stereo not drawn) [Example 250, 3-[4-(Cyclohexylmethoxy)-3-methylbenzyl]-5-pyridin-3-yl-1,3-oxazolidin-2-one] it is 1870 nM.
Regarding `CC1CN(Cc2ccc(OCc3ccc(-n4cccn4)cc3)cc2)C(=O)O1` (stereo not drawn) [Example 131], the EC50 amounted to 125 nM.

The EC50 is the concentration that produces a half-maximal response.

Values taken from US20090137577A1, “HETEROCYCLIC COMPOUNDS” (Pfizer Inc., priority 2007, published 2009).
